Where two headings read alike, the source gives them in different places.
Experiments:
Assay in all cases: Growth inhibitory activity of compounds on BaF3 cell lines stably transfected with kinase (MTS, 48 h)
Assay type in all cases: cell-based
[1] = target: T1, various mutants of kinase EGFR (BaF3 cell lines stably transfected with kinase) (Homo sapiens, UniProt P00533, C797S/L858R/T790M)
T1 construct: expressed in transfected cells; host or cells: BaF3
Procedure, shortened: (§1)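 First, cells were seeded and treated with an eight-point threefold dilution series starting at 10 µM (0.1% DMSO). After 48 h at 37 °C, MTS reagent was added for 1-4 h before absorbance at 490 nm. Inhibition rates gave the IC50.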

[2] = target: T2, various mutants of kinase EGFR (BaF3 cell lines stably transfected with kinase) (Homo sapiens, UniProt P00533)
T2 construct: other: BaF3 cells stably transfected with EGFR Δ19Del; MTS, 48 h; other: BaF3 cell line stably transfected with EGFR Δ19Del
Procedure, shortened: as §1

[3] = target: T3, various mutants of kinase EGFR (BaF3 cell lines stably transfected with kinase) (Homo sapiens, UniProt P00533, L858R/T790M)
T3 construct: expressed in transfected cells; host or cells: BaF3
Procedure, shortened: as §1

[4] = target: T4, various mutants of kinase EGFR (BaF3 cell lines stably transfected with kinase) (Homo sapiens, UniProt P00533, T790M/C797S, form not given)
T4 construct: other: BaF3 cells stably transfected with EGFR Δ19Del/T790M/C797S; MTS, 48; other: BaF3 cell line stably transfected with EGFR Δ19Del/T790M/C7
Procedure, shortened: as §1

[5] = target: T5, various mutants of kinase EGFR (BaF3 cell lines stably transfected with kinase) (Homo sapiens, UniProt P00533, L858R)
T5 construct: expressed in transfected cells; host or cells: BaF3
Procedure, shortened: as §1

[6] = target: T6, various mutants of kinase EGFR (BaF3 cell lines stably transfected with kinase) (Homo sapiens, UniProt P00533, T790M, form not given)
T6 construct: other: BaF3 cells stably transfected with EGFR Δ19Del/T790M; MTS, 48 h; other: BaF3 cell line stably transfected with EGFR Δ19Del/T790M; MTS, 48
Procedure, shortened: as §1

[7] = BaF3 cells stably transfected with EGFR L858R/T790M/C797S, read-out: IC50, growth inhibition, L858R/T790M/C797S
[8] = BaF3 cells stably transfected with EGFR Δ19Del, read-out: IC50, growth inhibition, Δ19Del
[9] = BaF3 cells stably transfected with EGFR L858R/T790M, read-out: IC50, growth inhibition, L858R/T790M
[10] = BaF3 cells stably transfected with EGFR Δ19Del/T790M/C797S, read-out: IC50, growth inhibition, Δ19Del/T790M/C797S
[11] = BaF3 cells stably transfected with EGFR L858R, read-out: IC50, growth inhibition, L858R
[12] = BaF3 cells stably transfected with EGFR Δ19Del/T790M, read-out: IC50, growth inhibition, Δ19Del/T790M
[13] = BaF3 cell line stably transfected with EGFR L858R/T790M/C797S, read-out: L858R/T790M/ C797S growth inhibitory activity IC50
[14] = BaF3 cell line stably transfected with EGFR Δ19Del, read-out: Δ19Del growth inhibitory activity IC50
[15] = BaF3 cell line stably transfected with EGFR L858R/T790M, read-out: L858R/ T790M growth inhibitory activity IC50
[16] = BaF3 cell line stably transfected with EGFR Δ19Del/T790M/C797S, read-out: Δ19Del/T790M/ C797S growth inhibitory activity IC50
[17] = BaF3 cell line stably transfected with EGFR L858R, read-out: L858R growth inhibitory activity IC50
[18] = BaF3 cell line stably transfected with EGFR Δ19Del/T790M, read-out: Δ19Del/ T790M growth inhibitory activity IC50

T5 sequence (P00533 25-1210 L858R): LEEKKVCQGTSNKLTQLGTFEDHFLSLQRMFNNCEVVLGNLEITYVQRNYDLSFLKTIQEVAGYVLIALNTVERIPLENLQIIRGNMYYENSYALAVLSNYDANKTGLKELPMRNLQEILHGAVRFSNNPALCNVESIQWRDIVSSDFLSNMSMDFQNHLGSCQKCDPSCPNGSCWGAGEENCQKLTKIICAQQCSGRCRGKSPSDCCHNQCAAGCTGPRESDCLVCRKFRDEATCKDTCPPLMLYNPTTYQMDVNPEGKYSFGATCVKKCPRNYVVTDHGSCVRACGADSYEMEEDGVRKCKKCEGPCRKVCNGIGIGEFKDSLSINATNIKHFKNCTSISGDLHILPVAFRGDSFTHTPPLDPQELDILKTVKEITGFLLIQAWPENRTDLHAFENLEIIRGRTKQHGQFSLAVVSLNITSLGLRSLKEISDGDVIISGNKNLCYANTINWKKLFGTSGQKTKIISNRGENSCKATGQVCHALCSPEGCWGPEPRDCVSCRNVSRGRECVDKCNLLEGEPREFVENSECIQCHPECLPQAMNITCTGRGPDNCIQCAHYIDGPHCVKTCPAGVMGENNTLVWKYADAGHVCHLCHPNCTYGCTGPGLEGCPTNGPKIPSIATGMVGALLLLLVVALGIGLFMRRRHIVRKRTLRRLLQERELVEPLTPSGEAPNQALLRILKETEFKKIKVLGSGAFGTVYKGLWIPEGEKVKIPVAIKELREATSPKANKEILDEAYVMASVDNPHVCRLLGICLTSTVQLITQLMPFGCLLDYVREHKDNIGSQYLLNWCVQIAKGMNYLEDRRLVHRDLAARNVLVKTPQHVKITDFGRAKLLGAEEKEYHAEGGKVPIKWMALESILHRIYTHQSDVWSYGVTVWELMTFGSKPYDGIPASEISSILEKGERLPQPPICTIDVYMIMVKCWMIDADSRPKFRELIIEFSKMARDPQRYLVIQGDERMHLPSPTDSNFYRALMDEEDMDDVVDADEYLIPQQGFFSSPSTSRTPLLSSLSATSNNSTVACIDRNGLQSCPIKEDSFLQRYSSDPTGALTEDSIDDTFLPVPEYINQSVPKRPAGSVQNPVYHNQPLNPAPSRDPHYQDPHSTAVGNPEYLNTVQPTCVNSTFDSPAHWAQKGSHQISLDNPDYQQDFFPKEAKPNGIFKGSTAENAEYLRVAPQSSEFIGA
T1 sequence (P00533 25-1210 T790M/C797S/L858R): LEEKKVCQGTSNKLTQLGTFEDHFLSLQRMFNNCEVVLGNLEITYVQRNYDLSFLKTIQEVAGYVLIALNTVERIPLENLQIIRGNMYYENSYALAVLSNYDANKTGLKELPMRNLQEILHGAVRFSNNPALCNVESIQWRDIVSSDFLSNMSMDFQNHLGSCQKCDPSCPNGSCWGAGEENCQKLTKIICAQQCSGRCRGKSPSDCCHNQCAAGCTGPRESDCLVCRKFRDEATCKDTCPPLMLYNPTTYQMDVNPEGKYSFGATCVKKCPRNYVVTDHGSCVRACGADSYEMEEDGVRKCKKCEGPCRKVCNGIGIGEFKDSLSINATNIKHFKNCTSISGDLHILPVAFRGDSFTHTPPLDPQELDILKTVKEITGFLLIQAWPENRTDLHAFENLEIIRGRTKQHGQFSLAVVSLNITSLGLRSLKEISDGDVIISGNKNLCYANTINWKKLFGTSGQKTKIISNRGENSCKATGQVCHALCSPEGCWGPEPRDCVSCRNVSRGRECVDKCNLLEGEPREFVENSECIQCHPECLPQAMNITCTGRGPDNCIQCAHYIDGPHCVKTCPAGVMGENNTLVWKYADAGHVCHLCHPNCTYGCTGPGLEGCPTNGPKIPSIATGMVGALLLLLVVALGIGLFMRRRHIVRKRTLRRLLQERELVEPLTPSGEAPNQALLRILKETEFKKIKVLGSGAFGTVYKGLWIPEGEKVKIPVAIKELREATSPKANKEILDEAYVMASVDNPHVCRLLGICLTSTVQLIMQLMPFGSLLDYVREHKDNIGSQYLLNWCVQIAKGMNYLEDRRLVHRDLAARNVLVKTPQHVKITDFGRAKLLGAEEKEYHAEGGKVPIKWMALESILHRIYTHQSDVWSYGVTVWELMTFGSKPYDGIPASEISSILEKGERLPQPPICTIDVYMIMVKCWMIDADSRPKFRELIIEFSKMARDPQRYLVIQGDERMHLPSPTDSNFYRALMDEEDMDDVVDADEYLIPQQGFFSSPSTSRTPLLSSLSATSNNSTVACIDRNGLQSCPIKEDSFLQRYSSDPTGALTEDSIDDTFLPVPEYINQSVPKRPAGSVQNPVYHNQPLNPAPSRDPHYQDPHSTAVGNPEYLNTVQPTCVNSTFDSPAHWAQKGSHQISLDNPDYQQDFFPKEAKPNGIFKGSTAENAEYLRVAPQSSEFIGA
T4 sequence (P00533 with tags, fused parts or gaps DEL746-750/T790M/C797S, form open): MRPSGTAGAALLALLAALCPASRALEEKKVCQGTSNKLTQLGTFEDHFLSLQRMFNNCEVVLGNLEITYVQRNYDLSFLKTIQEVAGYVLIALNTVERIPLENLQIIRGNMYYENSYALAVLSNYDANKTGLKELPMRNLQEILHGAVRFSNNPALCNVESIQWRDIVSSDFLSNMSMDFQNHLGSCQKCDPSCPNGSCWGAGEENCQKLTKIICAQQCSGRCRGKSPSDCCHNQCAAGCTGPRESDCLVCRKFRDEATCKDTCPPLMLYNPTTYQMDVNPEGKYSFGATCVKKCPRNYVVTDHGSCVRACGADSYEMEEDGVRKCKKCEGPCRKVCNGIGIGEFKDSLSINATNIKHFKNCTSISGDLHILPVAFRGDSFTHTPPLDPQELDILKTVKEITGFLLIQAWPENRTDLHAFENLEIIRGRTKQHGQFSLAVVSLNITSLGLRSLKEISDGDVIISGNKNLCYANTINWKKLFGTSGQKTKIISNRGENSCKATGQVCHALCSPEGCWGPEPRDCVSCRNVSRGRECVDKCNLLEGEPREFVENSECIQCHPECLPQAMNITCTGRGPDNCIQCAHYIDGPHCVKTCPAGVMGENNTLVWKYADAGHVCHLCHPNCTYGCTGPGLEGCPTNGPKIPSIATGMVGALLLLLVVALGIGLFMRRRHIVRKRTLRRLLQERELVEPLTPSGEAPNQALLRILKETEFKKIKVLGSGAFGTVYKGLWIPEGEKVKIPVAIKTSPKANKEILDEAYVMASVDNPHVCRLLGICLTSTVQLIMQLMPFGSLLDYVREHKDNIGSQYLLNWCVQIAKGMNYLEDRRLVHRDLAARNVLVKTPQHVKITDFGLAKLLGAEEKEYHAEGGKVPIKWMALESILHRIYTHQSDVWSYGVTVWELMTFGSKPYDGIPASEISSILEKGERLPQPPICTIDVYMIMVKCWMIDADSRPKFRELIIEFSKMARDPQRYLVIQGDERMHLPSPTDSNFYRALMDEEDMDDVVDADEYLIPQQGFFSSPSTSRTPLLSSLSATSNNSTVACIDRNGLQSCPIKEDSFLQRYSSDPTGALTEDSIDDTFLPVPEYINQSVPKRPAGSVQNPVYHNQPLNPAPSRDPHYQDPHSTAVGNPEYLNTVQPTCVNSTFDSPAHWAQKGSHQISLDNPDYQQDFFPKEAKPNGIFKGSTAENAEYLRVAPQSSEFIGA
T6 sequence (P00533 with tags, fused parts or gaps DEL746-750/T790M, form open): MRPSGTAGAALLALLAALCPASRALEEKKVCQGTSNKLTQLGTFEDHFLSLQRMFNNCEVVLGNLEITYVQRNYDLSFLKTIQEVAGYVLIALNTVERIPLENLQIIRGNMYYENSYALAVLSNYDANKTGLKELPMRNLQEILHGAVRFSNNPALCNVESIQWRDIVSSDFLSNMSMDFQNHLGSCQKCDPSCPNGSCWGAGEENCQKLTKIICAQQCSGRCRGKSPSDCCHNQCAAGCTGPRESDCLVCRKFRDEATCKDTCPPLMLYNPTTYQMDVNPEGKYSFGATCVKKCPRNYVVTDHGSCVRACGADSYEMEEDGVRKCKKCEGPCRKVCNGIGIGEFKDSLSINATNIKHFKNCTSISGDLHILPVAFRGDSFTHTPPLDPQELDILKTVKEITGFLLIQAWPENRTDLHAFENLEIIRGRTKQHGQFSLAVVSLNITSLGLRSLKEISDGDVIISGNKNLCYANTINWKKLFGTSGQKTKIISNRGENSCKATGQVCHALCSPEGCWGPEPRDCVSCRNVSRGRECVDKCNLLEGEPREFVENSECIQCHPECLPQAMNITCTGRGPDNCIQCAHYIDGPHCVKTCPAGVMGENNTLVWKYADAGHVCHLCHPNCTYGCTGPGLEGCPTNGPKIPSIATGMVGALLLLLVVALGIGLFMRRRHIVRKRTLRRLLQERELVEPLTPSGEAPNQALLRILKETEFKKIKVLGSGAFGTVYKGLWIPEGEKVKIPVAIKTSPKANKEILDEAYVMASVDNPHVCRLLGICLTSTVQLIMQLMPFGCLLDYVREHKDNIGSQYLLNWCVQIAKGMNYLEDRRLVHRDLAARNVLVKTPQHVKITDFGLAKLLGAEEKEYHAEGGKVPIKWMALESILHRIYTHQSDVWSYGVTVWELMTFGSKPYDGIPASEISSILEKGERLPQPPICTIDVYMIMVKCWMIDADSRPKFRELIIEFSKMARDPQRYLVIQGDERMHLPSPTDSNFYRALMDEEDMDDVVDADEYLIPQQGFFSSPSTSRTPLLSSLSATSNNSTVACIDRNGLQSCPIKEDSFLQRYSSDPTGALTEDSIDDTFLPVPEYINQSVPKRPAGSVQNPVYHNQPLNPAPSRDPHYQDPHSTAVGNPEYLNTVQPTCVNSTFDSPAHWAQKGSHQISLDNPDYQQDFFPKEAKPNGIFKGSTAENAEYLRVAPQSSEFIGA

SMILES	IC50 [1, 7]	IC50 [2, 8]	IC50 [3, 9]	IC50 [4, 10]	IC50 [5, 11]	IC50 [6, 12]	IC50 [1, 13]	IC50 [2, 14]	IC50 [3, 15]	IC50 [4, 16]	IC50 [5, 17]	IC50 [6, 18]
COc1cc(N2CCC(N3CCN(C)CC3)CC2)c(Cc2ccccc2)cc1Nc1ncc(Br)c(Nc2ccc3nccnc3c2N(C)S(C)(=O)=O)n1 [Compound I-11]	0.5 to 2.5 µM	0.5 to 2.5 µM	0.5 to 2.5 µM	0.5 to 2.5 µM	0.05 to 0.5 µM	0.5 to 2.5 µM	–	–	–	–	–	–
C=Cc1cc(Nc2ncc(Br)c(Nc3ccc4nccnc4c3N(C3CC3)S(C)(=O)=O)n2)c(OC(F)(F)F)cc1N1CCC(N2CCN(C)CC2)CC1 [Compound I-307]	–	–	–	–	–	–	0.05 to 0.5 µM	0.5 to 2.5 µM	0.05 to 0.5 µM	0.05 to 0.5 µM	0.5 to 2.5 µM	0.05 to 0.5 µM
CCc1cc(Nc2ncc(C(F)(F)F)c(Nc3ccc4nccnc4c3N(C)S(C)(=O)=O)n2)c(OC)cc1N1CCC(N(C)C)C1 (stereo not drawn) [Compound I-210]	≤ 0.05 µM	≤ 0.05 µM	≤ 0.05 µM	≤ 0.05 µM	≤ 0.05 µM	≤ 0.05 µM	–	–	–	–	–	–
CCc1cc(Nc2ncc(Br)c(Nc3ccc4nccnc4c3N(C)S(C)(=O)=O)n2)c(OC)nc1N1CCC(N2CCN(C)CC2)CC1 [Compound I-6]	≤ 0.05 µM	0.05 to 0.5 µM	≤ 0.05 µM	≤ 0.05 µM	≤ 0.05 µM	≤ 0.05 µM	–	–	–	–	–	–
COc1cc(N2CCC(N(C)C)C2)c(C)cc1Nc1ncc(C(F)(F)F)c(Nc2ccc3nccnc3c2N(C)S(C)(=O)=O)n1 (stereo not drawn) [Compound I-209]	≤ 0.05 µM	0.05 to 0.5 µM	≤ 0.05 µM	≤ 0.05 µM	≤ 0.05 µM	≤ 0.05 µM	–	–	–	–	–	–
COc1cc(N2CCC(N3CCN(C)CC3)CC2)c(C(C)C)cc1Nc1ncc(C#N)c(Nc2ccc3nccnc3c2N(C)S(C)(=O)=O)n1 [Compound I-345]	–	–	–	–	–	–	0.05 to 0.5 µM	0.05 to 0.5 µM	0.05 to 0.5 µM	0.05 to 0.5 µM	0.05 to 0.5 µM	0.05 to 0.5 µM
CCc1cc(Nc2ncc(C(F)(F)F)c(Nc3ccc4nccnc4c3N(C)S(C)(=O)=O)n2)c(OC)cc1N1CCN(C)CC1 [Compound I-208]	≤ 0.05 µM	0.05 to 0.5 µM	≤ 0.05 µM	≤ 0.05 µM	≤ 0.05 µM	≤ 0.05 µM	–	–	–	–	–	–
CCN(c1c(Nc2nc(Nc3cc(C)c(N4CCN(C)CC4)cc3OC)ncc2Br)ccc2nccnc12)S(C)(=O)=O [Compound I-300]	≤ 0.05 µM	0.05 to 0.5 µM	≤ 0.05 µM	≤ 0.05 µM	0.05 to 0.5 µM	0.05 to 0.5 µM	–	–	–	–	–	–
CCc1cc(Nc2ncc(Cl)c(Nc3ccc4nccnc4c3N(C)S(=O)(=O)C(F)(F)F)n2)c(OC)cc1N1CCC(N(C)C)CC1 [Compound I-132]	0.05 to 0.5 µM	0.5 to 2.5 µM	0.05 to 0.5 µM	≤ 0.05 µM	0.5 to 2.5 µM	0.05 to 0.5 µM	–	–	–	–	–	–
CCc1cc(Nc2ncc(Cl)c(Nc3ccc4nccnc4c3N(C)S(=O)(=O)CC)n2)c(OC)cc1N1CCC(N(C)C)C1 (stereo not drawn) [Compound I-118]	≤ 0.05 µM	≤ 0.05 µM	≤ 0.05 µM	≤ 0.05 µM	≤ 0.05 µM	≤ 0.05 µM	–	–	–	–	–	–
CN1CCN(Cc2cccc(Nc3ncc(Br)c(Nc4ccc5nccnc5c4N(C)S(C)(=O)=O)n3)c2)CC1 [Compound I-84]	0.05 to 0.5 µM	0.05 to 0.5 µM	≤ 0.05 µM	0.05 to 0.5 µM	≤ 0.05 µM	0.05 to 0.5 µM	–	–	–	–	–	–
CCc1cc(Nc2ncc(C)c(Nc3ccc4nccnc4c3N(C)S(C)(=O)=O)n2)c(OC(F)(F)F)cc1N1CCC(N2CCN(C)CC2)CC1 [Compound I-314]	–	–	–	–	–	–	≤ 0.05 µM	0.05 to 0.5 µM	≤ 0.05 µM	≤ 0.05 µM	0.05 to 0.5 µM	≤ 0.05 µM
CCc1cc(Nc2ncc(CC)c(Nc3ccc4nccnc4c3N(C)S(C)(=O)=O)n2)c(OC)cc1N1CCN(C)CC1 [Compound I-322]	–	–	–	–	–	–	≤ 0.05 µM	≤ 0.05 µM	≤ 0.05 µM	≤ 0.05 µM	≤ 0.05 µM	≤ 0.05 µM
COc1cc(N2CCC(N3CCN(C)CC3)CC2)c(C)cc1Nc1ncc(OC)c(Nc2ccc3nccnc3c2N(C)S(C)(=O)=O)n1 [Compound I-332]	–	–	–	–	–	–	≤ 0.05 µM	≤ 0.05 µM	≤ 0.05 µM	≤ 0.05 µM	≤ 0.05 µM	≤ 0.05 µM
CCc1cc(Nc2ncc(Cl)c(Nc3ccc4nccnc4c3N(C)S(C)(=O)=O)n2)ccc1N1CCC(N2CCN(C)CC2)CC1 [Compound I-289]	≤ 0.05 µM	≤ 0.05 µM	≤ 0.05 µM	≤ 0.05 µM	≤ 0.05 µM	≤ 0.05 µM	–	–	–	–	–	–
COc1cc(N2CCC(N3CCN(C)CC3)CC2)c(C)cc1Nc1ncc(Cl)c(Nc2ccc3nccnc3c2N(C)S(=O)(=O)C(F)(F)F)n1 [Compound I-129]	0.05 to 0.5 µM	0.5 to 2.5 µM	0.5 to 2.5 µM	0.05 to 0.5 µM	0.5 to 2.5 µM	0.05 to 0.5 µM	–	–	–	–	–	–

Second part, the compound after the results:

IC50 [1, 7]	IC50 [2, 8]	IC50 [3, 9]	IC50 [4, 10]	IC50 [5, 11]	IC50 [6, 12]	IC50 [1, 13]	IC50 [2, 14]	IC50 [3, 15]	IC50 [4, 16]	IC50 [5, 17]	IC50 [6, 18]	SMILES
–	–	–	–	–	–	≤ 0.05 µM	0.5 to 2.5 µM	0.05 to 0.5 µM	≤ 0.05 µM	0.05 to 0.5 µM	0.05 to 0.5 µM	COc1ccc(N2CCC(O)CC2)cc1Nc1ncc(Br)c(Nc2ccc3nccnc3c2N(C)S(=O)(=O)C(F)(F)F)n1 [Compound I-371]
–	–	–	–	–	–	≤ 0.05 µM	0.5 to 2.5 µM	0.05 to 0.5 µM	≤ 0.05 µM	0.05 to 0.5 µM	0.5 to 2.5 µM	COc1ccc(N2CCC(O)CC2)cc1Nc1ncc(Cl)c(Nc2ccc3nccnc3c2N(C)S(=O)(=O)C(F)(F)F)n1 [Compound I-370]
–	–	–	–	–	–	≤ 0.05 µM	≤ 0.05 µM	≤ 0.05 µM	0.05 to 0.5 µM	≤ 0.05 µM	≤ 0.05 µM	CCc1cc(Nc2ncc(C#N)c(Nc3ccc4nccnc4c3N(C)S(C)(=O)=O)n2)ccc1N1CCC(N2CCN(C)CC2)CC1 [Compound I-346]
–	–	–	–	–	–	0.05 to 0.5 µM	0.5 to 2.5 µM	0.5 to 2.5 µM	0.05 to 0.5 µM	0.5 to 2.5 µM	0.5 to 2.5 µM	CCc1cc(Nc2nc(Nc3ccc4nccnc4c3N(C)S(C)(=O)=O)c3sccc3n2)c(OC)cc1N1CCN(C)CC1 [II-1-15]
–	–	–	–	–	–	0.05 to 0.5 µM	0.05 to 0.5 µM	0.05 to 0.5 µM	≤ 0.05 µM	0.05 to 0.5 µM	0.05 to 0.5 µM	C=Cc1cc(Nc2nc(Nc3ccc4nccnc4c3N(C)S(C)(=O)=O)c3[nH]ccc3n2)c(OC(F)(F)F)cc1N1CCC(N2CCN(C)CC2)CC1 [II-1-23]
–	–	–	–	–	–	≤ 0.05 µM	0.05 to 0.5 µM	0.05 to 0.5 µM	≤ 0.05 µM	0.05 to 0.5 µM	0.05 to 0.5 µM	CCc1cc(Nc2nc(Nc3ccc4nccnc4c3N(C)S(C)(=O)=O)c3sccc3n2)c(OC)cc1N1CCC(N2CCN(C)CC2)CC1 [II-1-3]
–	–	–	–	–	–	0.05 to 0.5 µM	0.05 to 0.5 µM	0.05 to 0.5 µM	0.05 to 0.5 µM	0.05 to 0.5 µM	≤ 0.05 µM	CCc1cnc(Nc2ccc(N3CCC(N4CCN(C)CC4)CC3)c(F)c2F)nc1Nc1ccc2nccnc2c1N(C)S(C)(=O)=O [Compound I-348]
–	–	–	–	–	–	0.05 to 0.5 µM	0.5 to 2.5 µM	0.05 to 0.5 µM	≤ 0.05 µM	0.5 to 2.5 µM	0.05 to 0.5 µM	C=Cc1cc(Nc2nc(Nc3ccc4nccnc4c3N(C)S(C)(=O)=O)c3sccc3n2)c(OC(F)(F)F)cc1N1CCC(N2CCN(C)CC2)CC1 [II-1-9]
–	–	–	–	–	–	≤ 0.05 µM	≤ 0.05 µM	≤ 0.05 µM	≤ 0.05 µM	≤ 0.05 µM	≤ 0.05 µM	CCc1cc(Nc2ncc(Br)c(Nc3ccc4nccnc4c3N(C)S(C)(=O)=O)n2)c(OC)cc1N1CCN(C2CN(C)C2)CC1 [Compound I-398]
–	–	–	–	–	–	0.05 to 0.5 µM	0.05 to 0.5 µM	0.5 to 2.5 µM	0.05 to 0.5 µM	0.05 to 0.5 µM	0.05 to 0.5 µM	CCc1cc(Nc2nc(Nc3ccc4nccnc4c3N(C)S(C)(=O)=O)c3[nH]ccc3n2)c(OC)nc1N1CCC(N2CCN(C)CC2)CC1 [II-1-21]

— patent publication US20230310428A1, “EGFR INHIBITOR AND PREPARATION METHOD AND USE THEREOF” (HONGYUN BIOTECH CO., LTD., priority 2020, published 2023)
